The target of assay [1] is T1, Aromatase (Homo sapiens, UniProt P11511).
T1 sequence (P11511 whole entry): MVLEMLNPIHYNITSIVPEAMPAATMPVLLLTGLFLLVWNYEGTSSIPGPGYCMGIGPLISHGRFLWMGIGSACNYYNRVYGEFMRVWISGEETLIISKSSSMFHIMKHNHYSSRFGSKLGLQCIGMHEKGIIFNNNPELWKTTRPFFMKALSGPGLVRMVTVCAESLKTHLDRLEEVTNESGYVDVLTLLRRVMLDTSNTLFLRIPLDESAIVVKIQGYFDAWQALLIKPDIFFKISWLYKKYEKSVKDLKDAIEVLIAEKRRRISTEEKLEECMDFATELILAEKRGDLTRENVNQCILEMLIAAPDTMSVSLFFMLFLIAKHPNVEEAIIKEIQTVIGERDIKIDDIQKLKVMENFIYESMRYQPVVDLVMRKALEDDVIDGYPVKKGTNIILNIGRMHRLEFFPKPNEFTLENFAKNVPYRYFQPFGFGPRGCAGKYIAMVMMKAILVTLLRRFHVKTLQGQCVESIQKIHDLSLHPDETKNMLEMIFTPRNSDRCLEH
In words: Inhibition of aromatase in human placental microsomes assessed as tritiated water release after 15 mins using [1-beta, 3H]androstenedione as substrate by scintillation counting. More on the design: species or system Placenta.

The target in assay [2] is T1, Aromatase. The experiment in a line: Inhibition of aromatase.
Assay [3] addresses T1, Aromatase. The experiment in a line: Inhibition of aromatase at 40.7 uM.

We go through ten compounds from ChEMBL document CHEMBL1156709, “Evaluation of ursolic acid isolated from Ilex paraguariensis and derivatives on aromatase inhibition” (Eur J Med Chem, 2008).

With `C[C@H]1[C@H](C)CC[C@]2(C(=O)NCCCN3CCN(CCCN)CC3)CC[C@]3(C)C(=CC[C@@H]4[C@@]5(C)CC[C@H](O)C(C)(C)[C@@H]5CC[C@]43C)[C@H]12`, at Aromatase [1], the IC50 – broadly, the point on the concentration scale where inhibition reaches its midpoint – is below 500 µM.
The same measure, in the same setting: the same measure for `CC(=O)O[C@H]1CC[C@]2(C)[C@H]3CC=C4[C@@H]5[C@@H](C)[C@H](C)CC[C@]5(C(=O)NCCCN5CCN(CCCN)CC5)CC[C@@]4(C)[C@]3(C)CC[C@H]2C1(C)C`: below 500 µM.
`C[C@H]1[C@H](C)CC[C@]2(C(=O)O)CC[C@]3(C)C(=CC[C@@H]4[C@@]5(C)CCC(=O)NC(C)(C)[C@@H]5CC[C@]43C)[C@H]12`: the half-maximal inhibitory concentration (IC50) at Aromatase [1] was above 500 µM.
On the same count and under the same terms, the same measure for `C=C(C)[C@@H]1CC[C@]2(C)[C@H](CC=C3[C@@H]4[C@@H](C)[C@H](C)CC[C@]4(C(=O)O)CC[C@]32C)[C@@]1(C)CCC#N`: above 500 µM.
For the compound `C[C@H]1[C@H](C)CC[C@]2(C(=O)O)CC[C@]3(C)C(=CC[C@@H]4[C@@]5(C)CC/C(=N\O)C(C)(C)[C@@H]5CC[C@]43C)[C@H]12`, the IC50 on Aromatase [1] was above 500 µM.
The same measure, in the same setting: the same measure for `C[C@]12CCC(=O)C(O)=C1CC[C@@H]1[C@@H]2CC[C@]2(C)C(=O)CC[C@@H]12` [FORMESTANE]: 0.8 µM.
In turn, `CC(=O)O[C@H]1CC[C@]2(C)[C@H]3CC=C4[C@@H]5[C@@H](C)[C@H](C)CC[C@]5(C(=O)O)CC[C@@]4(C)[C@]3(C)CC[C@H]2C1(C)C` [O-ACETYLURSOLIC ACID] gave an IC50 on Aromatase [2] of 85.6 µM.
In the case of `CC1(C)CC[C@]2(C(=O)O)CC[C@]3(C)C(=CC[C@@H]4[C@@]5(C)CC[C@H](O)C(C)(C)[C@@H]5CC[C@]43C)[C@@H]2C1` [OLEANOLIC_ACID], the inhibition (commonly the share of the control response that was lost under treatment) at 40.7 µM at Aromatase [3] was 12%.
Take `C[C@H]1[C@H](C)CC[C@]2(C(=O)O)CC[C@]3(C)C(=CC[C@@H]4[C@@]5(C)CC[C@H](O)C(C)(C)[C@@H]5CC[C@]43C)[C@H]12` [URSOLIC ACID]: 40.7 µM produced 12% inhibition against Aromatase [3]. Further, the 50% inhibitory concentration (IC50) at Aromatase [1] was 32 µM; against Aromatase [2], 30.7 µM.
As for `C[C@H]1[C@H](C)CC[C@]2(C(=O)O)CC[C@]3(C)C(=CC[C@@H]4[C@@]5(C)CCC(=O)C(C)(C)[C@@H]5CC[C@]43C)[C@H]12` [URSONIC ACID], on Aromatase [1], the IC50 was above 500 µM.
